Converted amounts (≈) assume the structure as drawn. Where two headings read alike, the source gives them in different places.
What was measured:
Format in all cases: cell-based
[1] = system: Acinetobacter baumannii (carbapenem-resistant clinical isolates; ATCC19606); experiment: MIC by micro broth dilution (CLSI), Acinetobacter baumannii; details: Acinetobacter baumannii; for MIC50 / MIC90: ATCC19606
Excerpt: (§1) The test bacteria were one strain of clinically isolated carbapenem-resistant Escherichia coli, two strains of carbapenem-resistant Acinetobacter baumannii, two strains of methicillin-resistant Staphylococcus aureus, two strains of sensitive Staphylococcus aureus, and 7 strains of Klebsiella pneumoniae. Duplicate strains isolated from the same patient were eliminated. There were also […] quality control strains Escherichia coli ATCC25922, Acinetobacter baumannii ATCC19606, Staphylococcus aureus ATCC29213, Klebsiella pneumoniae ATCC BAA-1705, ATCC 43816, ATCC BAA-2472, ATCC-BAA-1898, ATCC-BAA-1899, NCTC 13440 and ATCC-BAA-2470. There were 24 strains in total.
(§2) According to the recommendations of relevant documents of the American Clinical and Laboratory Standards Institute (CLSI), the micro broth dilution method was used to determine the MIC of the compounds of the present invention against clinically isolated strains. • 3.1 Formulation of antibacterial drug: All the compounds of the present invention were dissolved in DMSO. The drug concentration range was 128 mg/L to 0.06 mg/L. • 3.2 Culture medium: The drug susceptibility test used cation adjusted Mueller-Hinton broth (CAMHB). • 3.3 Amount of inoculum: The test bacteria cultured overnight were adjusted to 0.5 McFarland turbidity by the direct colony suspension method, and diluted 100 folds, the final inoculum amount was 10^5 CFU/mL. • 3.4 Culture conditions: The test bacteria were cultured at 35±2° C. for 20 hours in air.
(§3) The drug susceptibility test results were interpretated by reference to CLSI 2019 M100 29th edition criteria.
(§4) The quality control strains of the drug susceptibility test were Escherichia coli ATCC 25922, Acinetobacter baumannii ATCC 19606, Staphylococcus aureus ATCC 29213, Klebsiella pneumoniae ATCC BAA-1705, ATCC 43816, ATCC BAA-2472, ATCC-BAA-1898, ATCC-BAA-1899, NCTC 13440 and ATCC-BAA-2470.
(§5) The results of drug susceptibility test were statistically analyzed by WHONET software (version 5.6).

[2] = system: Staphylococcus aureus (methicillin-resistant and sensitive clinical isolates; ATCC29213); experiment: MIC by micro broth dilution (CLSI), Staphylococcus aureus
Excerpt: as §1, §2, §3, §4, §5

[3] = system: Escherichia coli (carbapenem-resistant clinical isolate; ATCC25922); experiment: MIC by micro broth dilution (CLSI), Escherichia coli; details: Escherichia coli
Excerpt: as §1, §2, §3, §4, §5

[4] = Clinical strain, read-out: MIC50
[5] = Clinical strain, read-out: MIC90
[6] = Standard strain ATCC19606, read-out: MIC
[7] = Standard strain ATCC29213, read-out: MIC
[8] = ATCC25922, Clinical strain, read-out: MIC50
[9] = ATCC25922, Clinical strain, read-out: MIC90
[10] = Standard strain ATCC25922, read-out: MIC

Row | Structure (SMILES) | MIC50 [1, 4] [µg/mL] | MIC90 [1, 5] [µg/mL] | MIC [1, 6] [µg/mL] | MIC50 [2, 4] [µg/mL] | MIC90 [2, 5] [µg/mL] | MIC [2, 7] [µg/mL] | MIC50 [3, 8] [µg/mL] | MIC90 [3, 9] [µg/mL] | MIC [3, 10] [µg/mL] | MIC50 ([1]; clinical strains, micro broth dilution, CAMHB, 35±2° C., 20 hours, read-out: MIC50 Acinetobacter baumannii Clinical strain) [µg/mL] | MIC90 ([1]; clinical strains, micro broth dilution, CAMHB, 35±2° C., 20 hours, read-out: MIC90 Acinetobacter baumannii Clinical strain) [µg/mL] | MIC ([1]; standard strain ATCC19606, micro broth dilution, CAMHB, 35±2° C., 20 hours, read-out: MIC Acinetobacter baumannii Standard strain ATCC19606) [µg/mL] | MIC50 ([2]; clinical strains, micro broth dilution, CAMHB, 35±2° C., 20 hours, read-out: MIC50 Staphylococcus aureus Clinical strain) [µg/mL] | MIC90 ([2]; clinical strains, micro broth dilution, CAMHB, 35±2° C., 20 hours, read-out: MIC90 Staphylococcus aureus Clinical strain) [µg/mL] | MIC ([2]; standard strain ATCC29213, micro broth dilution, CAMHB, 35±2° C., 20 hours, read-out: MIC Staphylococcus aureus Standard strain ATCC29213) [µg/mL] | MIC50 ([3]; clinical strains, micro broth dilution, CAMHB, 35±2° C., 20 hours, read-out: MIC50 Escherichia coli Clinical strain) [µg/mL] | MIC90 ([3]; clinical strains, micro broth dilution, CAMHB, 35±2° C., 20 hours, read-out: MIC90 Escherichia coli Clinical strain) [µg/mL] | MIC ([3]; standard strain ATCC25922, micro broth dilution, CAMHB, 35±2° C., 20 hours, read-out: MIC Escherichia coli Standard strain ATCC25922) [µg/mL]
1 | O=[N+]([O-])c1cc(Cl)c2cc(CN3CCCCC3)cnc2c1O [Example 92, 5-chloro-7-nitro-3-(piperidin-1-ylmethyl)quinolin-8-ol] | 32 (≈ 99.5 µM) | 128 (≈ 398 µM) | 32 (≈ 99.5 µM) | 16 (≈ 49.7 µM) | 16 (≈ 49.7 µM) | 16 (≈ 49.7 µM) | > 128 | > 128 | 64 (≈ 199 µM) |  |  |  |  |  |  |  |  | 
2 | CN(C)Cc1cc([N+](=O)[O-])c(O)c2nccc(C(F)(F)F)c12 [Example 104, 5-((dimethylamino)methyl)-7-nitro-4-(trifluoromethyl)quinolin-8-ol] | > 128 | > 128 | > 128 | > 128 | > 128 | > 128 | > 128 | > 128 | 128 (≈ 406 µM) |  |  |  |  |  |  |  |  | 
3 | O=[N+]([O-])c1cc(Br)c2cccnc2c1O [Example 121, 5-bromo-7-nitroquinolin-8-ol] |  |  |  |  |  |  |  |  |  | 16 (≈ 59.5 µM) | 32 (≈ 119 µM) | 8 (≈ 29.7 µM) | 4 (≈ 14.9 µM) | 16 (≈ 59.5 µM) | 8 (≈ 29.7 µM) | 128 (≈ 476 µM) | 128 (≈ 476 µM) | 16 (≈ 59.5 µM)
4 | O=[N+]([O-])c1ccc2c(CN3CCOCC3)ccnc2c1O [Example 89, 4-(morpholinomethyl)-7-nitroquinolin-8-ol] | 128 (≈ 442 µM) | 128 (≈ 442 µM) | 128 (≈ 442 µM) | 64 (≈ 221 µM) | 64 (≈ 221 µM) | 64 (≈ 221 µM) | > 128 | > 128 | > 128 |  |  |  |  |  |  |  |  | 
5 | Cc1cnc2c(O)c([N+](=O)[O-])cc(F)c2c1 [Example 86, 5-fluoro-3-methyl-7-nitroquinolin-8-ol] | 16 (≈ 72 µM) | 32 (≈ 144 µM) | 16 (≈ 72 µM) | 8 (≈ 36 µM) | > 128 | 8 (≈ 36 µM) | 32 (≈ 144 µM) | 32 (≈ 144 µM) | 16 (≈ 72 µM) |  |  |  |  |  |  |  |  | 
6 | Cl.Cl.Cl.O=[N+]([O-])c1ccc2cc(CN3CCNCC3)cnc2c1O [Example 102, 7-nitro-3-(piperazin-1-ylmethyl)quinolin-8-ol trihydrochloride] | > 128 | > 128 | > 128 | > 128 | > 128 | > 128 | > 128 | > 128 | 128 |  |  |  |  |  |  |  |  | 
7 | O=[N+]([O-])c1cc(F)c2cccnc2c1O [Example 106, 5-fluoro-7-nitroquinolin-8-ol] |  |  |  | 16 (≈ 76.9 µM) | 16 (≈ 76.9 µM) | 16 (≈ 76.9 µM) | 8 (≈ 38.4 µM) | 128 (≈ 615 µM) | 16 (≈ 76.9 µM) |  |  |  |  |  |  |  |  | 
8 | Cc1cc([N+](=O)[O-])c(O)c2ncccc12 [Example 4, 5-Methyl-7-nitroquinolin-8-ol] | 32 (≈ 157 µM) | 32 (≈ 157 µM) |  |  |  |  |  |  |  |  |  |  |  |  |  |  |  | 
9 | Cc1c([N+](=O)[O-])c(O)c2ncccc2c1Cl [Example 107, 5-chloro-6-methyl-7-nitroquinolin-8-ol] |  |  |  | 4 (≈ 16.8 µM) | 8 (≈ 33.5 µM) | 8 (≈ 33.5 µM) | 64 (≈ 268 µM) | 128 (≈ 536 µM) | 32 (≈ 134 µM) |  |  |  |  |  |  |  |  | 
10 | O=[N+]([O-])c1cc(CO)c2cccnc2c1O [Example 109, 5-(hydroxymethyl)-7-nitroquinolin-8-ol] |  |  |  | 128 (≈ 581 µM) | 128 (≈ 581 µM) | 64 (≈ 291 µM) | 32 (≈ 145 µM) | 64 (≈ 291 µM) | 64 (≈ 291 µM) |  |  |  |  |  |  |  |  | 
11 | O=[N+]([O-])c1ccc2c(C3CCNCC3)ccnc2c1O [Example 105, 7-nitro-4-(piperidin-4-yl)quinolin-8-ol] |  |  |  | 128 (≈ 468 µM) | 128 (≈ 468 µM) | 128 (≈ 468 µM) | 128 (≈ 468 µM) | > 128 | 128 (≈ 468 µM) |  |  |  |  |  |  |  |  | 

From US20240246916A1, “7-NITRO-8-HYDROXYQUINOLINE DERIVATIVES, PREPARATION METHOD THEREFORE AND MEDICAL USE THEREOF” (Jiangsu Yahong Meditech Co., Ltd., priority 2021, published 2024)
